Laboratory results reported in patent EP2135604A1, “INFUSION PREPARATION FOR CANCER PATIENT” (Matsui, Hirofumi, priority 2007, dated 2008).

What was measured:
[1] = test system: rat stomach mucous membrane cells; test: Chemical carcinogenesis with L-glutamine added to the growth medium; format: cell-based; details: addition of L-glutamine to the growth medium
[2] = test system: rats infected with Helicobacter pylori; details: reported by Patent Document 4; cited from earlier work
[3] = test system: rat stomach mucous membrane cell line (RGM); test: Culture in glucose-free, 3% glutamine medium, observation under a microscope; format: cell-based; details: RGM non-tumor cells, absence of glucose, 120 hours
Method: (§1) A rat stomach mucous membrane cell line (RGM) and a rat stomach cancer cell line (RGK-37) were cultured in Gibco#11330-032 DMEM/F12 medium and Sigma#D6421 DMEM/F12 medium, respectively. Each culture was cultured in the absence of glucose and in the presence of 3% glutamine for 120 hours. Subsequently, the cells were observed under a microscope.

[4] = test system: rat stomach cancer cell line (RGK-37); test: as above; format: cell-based; details: RGK-37 tumor cells, absence of glucose, 120 hours
Method: as §1

[5] = test system: rat stomach mucous membrane cell line (RGM); test: BrdU uptake (ELISA) at different glucose concentrations in the growth medium; format: cell-based; details: medium with 0, 0.3 or 1.3 g/L of glucose, 1%FBS, 1% L-glutamine, 24 hours, relative to 3 g/L glucose (= 1)
Method: (§2) A rat stomach mucous membrane cell line (RGM) and a rat stomach cancer cell line (RGK-37) were cultured in Gibco#11330-032 DMEM/F12 medium and L-glutamine-free Sigma#D6421 DMEM/F12 medium, respectively. Each culture was supplemented with 10% FBS and was cultured during the logarithmic growth phase. The growth medium was then replaced with a growth medium containing 0, 0.3 or 1.3 g/L of glucose and supplemented with 1%FBS and 1% L-glutamine. After 24 hours of culturing, bromodeoxyuridine (BrdU) was added to each culture. 2 hours after the addition of BrdU, the BrdU uptake was measured by ELISA. The BrdU uptake for each culture is shown in Fig. 1 relative to the uptake obtained at a glucose concentration of 3 g/L (= 1).

[6] = test system: rat stomach cancer cell line (RGK-37); test: as above; format: cell-based; details: medium with 0, 0.3 or 1.3 g/L of glucose, 1%FBS, 1% L-glutamine, 24 hours, relative to 3 g/L glucose (= 1)
Method: as §2

[7] = test system: normal stomach mucous cell line of rat; test: Protein levels at decreased glucose levels in the culture medium; format: cell-based
[8] = test system: tumor cell lines of rat and human stomach cancer; test: as above; format: cell-based; details: human stomach cancer tumor cell line; decreasing glucose levels in the culture medium
[9] = test system: tumor cell lines of rat and human stomach cancer; test: as above; format: cell-based; details: rat stomach cancer tumor cell line; decreasing glucose levels in the culture medium

Compound | chemical carcinogenesis [1] | onset of legions resembling stomach cancer [2] | cell survival (microscope) [3] | cell survival (microscope) ([3]; listed as glutamine) | cell survival / apoptosis (microscope) [4] | cell survival / apoptosis (microscope) ([4]; listed as glutamine) | BrdU uptake [5] | BrdU uptake [6] | protein levels [7] | protein levels [8] | protein levels [9]
NC(=O)CC[C@H](N)C(=O)O [L-glutamine] | suppresses chemical carcinogenesis | ability to suppress the onset of legions resembling stomach cancer | can survive | survived | apoptosis is induced | apoptosis was induced | – | – | – | – | –
OC[C@H]1OC(O)[C@H](O)[C@@H](O)[C@@H]1O (some centres unmarked) [glucose] | – | – | – | – | – | – | relatively constant | decreased relatively with decreasing concentrations of glucose | no changes | decreased protein levels | decreased protein levels
